# Where a name gives a salt, the structure may show the parent alone.
# How the values were obtained:
# [1] = molecular target: T1, SOS1 catalytic domain (residues 564-1049) (Homo sapiens, UniProt Q07889); experiment: Potency Assay: binding affinity to SOS1 using Surface Plasmon Resonance (SPR); set-up: SOS1 catalytic domain (residues 564-1049) immobilized on a sensor chip; settings: immobilized SOS1 catalytic domain (residues 564-1049), read-out: SOS1 SPR Equilibrium Kd
# T1 sequence (Q07889 564-1049): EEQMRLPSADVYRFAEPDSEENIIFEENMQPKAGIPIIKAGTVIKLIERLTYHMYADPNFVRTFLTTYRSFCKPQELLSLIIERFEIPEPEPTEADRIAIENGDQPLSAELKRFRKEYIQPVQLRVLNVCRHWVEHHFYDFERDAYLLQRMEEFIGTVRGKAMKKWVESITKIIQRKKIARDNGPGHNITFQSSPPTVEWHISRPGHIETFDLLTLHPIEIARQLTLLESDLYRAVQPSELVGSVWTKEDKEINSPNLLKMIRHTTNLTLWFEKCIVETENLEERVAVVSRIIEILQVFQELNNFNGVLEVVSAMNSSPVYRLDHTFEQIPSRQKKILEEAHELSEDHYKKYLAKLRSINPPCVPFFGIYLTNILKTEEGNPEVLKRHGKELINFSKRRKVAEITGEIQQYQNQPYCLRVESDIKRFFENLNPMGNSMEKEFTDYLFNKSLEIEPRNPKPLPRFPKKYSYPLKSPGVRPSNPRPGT
# Protocol: Data was reported as equilibrium dissociation constant (Kd) values.
# Using a GE Biacore 8K SPR instrument, avi-tagged SOS1 catalytic domain protein was immobilized to a level of approximately 6000 response units (RU) on a streptavidin-coated SPR sensor chip in assay buffer containing 0.01 M HEPES, 0.15 M NaCl and 0.05% v/v Surfactant P20. […] For each test compound, a separate 0 μM sample was generated for use during subsequent double reference subtraction. Serially for each test compound, individual dilution samples were flowed over the immobilized SOS1 protein at a flow rate of 50 μL/minute to monitor the association with SOS1. Dissociation of bound test compound from the SOS1 protein was immediately monitored by flowing assay buffer over the sensor surface and monitoring the decrease in binding signal back to the baseline level seen in the absence of compound. This was repeated for all compound dilutions in each series. The binding level response for each test compound concentration was noted immediately prior to the end of the association phase, and a secondary plot generated showing binding response level versus test compound concentration generated for each compound dilution series.
# [2] = molecular target: T1, SOS1 catalytic domain (residues 564-1049); experiment: Mode of Action Assay: inhibition of SOS1 nucleotide exchange activity (SOS1 TR-FRET IC50 Assay)
# [3] = test system: PC-9 cells (EGFR Ex19Del); experiment: Potency Assay: pERK (SOS1 pERK IC50 Assay, AlphaLISA SureFire Ultra p-ERK1/2); format: cell-based; settings: Homo sapiens; PC-9 cells (EGFR Ex19Del), 1 hour incubation, AlphaLISA p-ERK1/2; read-out: SOS1 pERK IC50
# In short: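 Cellular pERK1/2 by AlphaLISA SureFire Ultra after 1 h compound exposure (37° C., highest concentration 10 μM, 3-fold steps, duplicates) of EGFR Ex19Del PC-9 cells seeded the day before. A 4-parameter fit of signal versus log concentration gives IC50.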
Compound,Kd [1],IC50 [2],IC50 [3]
"COC(=O)N1Cc2nc(C)nc(N[C@H](C)c3cc(N)cc(C(F)(F)F)c3)c2C1 [Example 117, methyl 4-{[(1R)-1-[3-amino-5-(trifluoromethyl)phenyl]ethyl]amino}-2-methyl-5H,6H,7H-pyrrolo[3,4-d]pyrimidine-6-carboxylate]",> 400 nM,–,–
COc1cncc(C(=O)N2Cc3nc(Cl)nc(N[C@H](C)c4cc(N)cc(C(F)(F)F)c4)c3C2)n1 [Example 69],> 400 nM,> 1000 nM,–
C[C@@H](Nc1nc(Cl)nc2c1CN(C(=O)C1CC3(CCNCC3)C1)C2)c1cc(N)cc(C(F)(F)F)c1 [Example 79],< 400 nM,–,–
C[C@@H](Nc1nc(Cl)nc2c1CN(C(=O)N1CC3CCC(C1)O3)C2)c1cc(N)cc(C(F)(F)F)c1 [Example 153],< 400 nM,–,–
C[C@@H](Nc1nc(Cl)nc2c1CN(S(=O)(=O)N1CCNCC1)C2)c1cc(N)cc(C(F)(F)F)c1 [Example 28],< 400 nM,–,–
CCOCCS(=O)(=O)N1Cc2nc(Cl)nc(N[C@H](C)c3cc(N)cc(C(F)(F)F)c3)c2C1 [Example 50],> 400 nM,> 1000 nM,–
CC(=O)N1CC(F)(C(=O)N2Cc3nc(Cl)nc(N[C@H](C)c4cccc(C(F)F)c4F)c3C2)C1 [Example 347],< 400 nM,< 1000 nM,–
CC(=O)N1CC(C)(C(=O)N2Cc3nc(Cl)nc(N[C@H](C)c4cccc(C(F)F)c4F)c3C2)C1 [Example 346],< 400 nM,< 1000 nM,–
C[C@@H](Nc1nc(Cl)nc2c1CN(C(=O)N1CCNCC1C(F)(F)F)C2)c1cc(N)cc(C(F)(F)F)c1 (stereo partly shown) [Example 358],< 400 nM,< 1000 nM,–
C[C@@H](Nc1nc(Cl)nc2c1CN(C(=O)N1CCc3ncncc3C1)C2)c1cc(N)cc(C(F)(F)F)c1 [Example 144],< 400 nM,–,–
C[C@@H](Nc1nc(Cl)nc2c1CN(C(=O)N1C[C@H]3COC[C@H]3C1)C2)c1cc(N)cc(C(F)(F)F)c1 [Example 149],< 400 nM,–,–
C[C@@H](Nc1nc(Cl)nc2c1CN(C(=O)c1ccc3c(n1)OCCO3)C2)c1cc(N)cc(C(F)(F)F)c1 [Example 80],> 400 nM,> 1000 nM,–
C[C@@H](Nc1nc(Cl)nc2c1CN(C(=O)N1CCNc3ncncc31)C2)c1cccc(C(F)F)c1F [Example 427],< 400 nM,< 1000 nM,–
C[C@@H](Nc1nc(Cl)nc2c1CN(C(=O)c1cnn(C3CCOCC3)c1)C2)c1cc(N)cc(C(F)(F)F)c1 [Example 96],< 400 nM,> 1000 nM,–
C[C@@H](Nc1nc(Cl)nc2c1CN(C(=O)N1CCC3(CC1)COC3)C2)c1cc(N)cc(C(F)(F)F)c1 [Example 159],< 400 nM,< 1000 nM,–
C[C@@H](Nc1nc(Cl)nc2c1CN(C(=O)C1CC3CCC(C1)O3)C2)c1cc(N)cc(C(F)(F)F)c1 (stereo partly shown) [Example 81],< 400 nM,< 1000 nM,–
COc1ccc(C(=O)N2Cc3nc(Cl)nc(N[C@H](C)c4cc(N)cc(C(F)(F)F)c4)c3C2)cc1OC [Example 172],< 400 nM,< 1000 nM,–
COC1CN([C@H]2CCc3nc(Cl)nc(N[C@H](C)c4cc(N)cc(C(F)(F)F)c4)c3C2)C1 [Example 432],< 400 nM,< 1000 nM,–
COC[C@H]1CCCN1C(=O)N1Cc2nc(Cl)nc(N[C@H](C)c3cc(N)cc(C(F)(F)F)c3)c2C1 [Example 154],< 400 nM,< 1000 nM,–
"Cc1nc2c(c(N[C@H](C)c3cc(N)cc(C(F)(F)F)c3)n1)CN(c1ccc(Br)cn1)CC2 [Example 42, N-[(1R)-1-[3-amino-5-(trifluoromethyl)phenyl]ethyl]-6-(5-bromo-2-pyridyl)-2-methyl-7,8-dihydro-5H-pyrido[4,3-d]pyrimidin-4-amine]",> 400 nM,> 1000 nM,–
C[C@@H](Nc1nc(Cl)nc2c1CN(S(=O)(=O)N1CC(C#N)C1)C2)c1cc(N)cc(C(F)(F)F)c1 [Example 26],> 400 nM,–,–
C[C@@H](Nc1nc(Cl)nc2c1CN(C(=O)N1C3CCC1COC3)C2)c1cc(N)cc(C(F)(F)F)c1 [Example 158],< 400 nM,–,–

Compound,Kd [1],IC50 [2],IC50 [3]
COC1(C(=O)N2Cc3nc(Cl)nc(N[C@H](C)c4cccc(C(F)F)c4F)c3C2)CCN(C(C)=O)CC1 [Example 345],< 400 nM,< 1000 nM,–
COc1cccnc1C(=O)N1Cc2nc(Cl)nc(N[C@H](C)c3cc(N)cc(C(F)(F)F)c3)c2C1 [Example 74],< 400 nM,< 1000 nM,–
C[C@@H](Nc1nc(Cl)nc2c1CN(C(=O)c1ncc[nH]1)C2)c1cc(N)cc(C(F)(F)F)c1 [Example 95],> 400 nM,> 1000 nM,–
C[C@@H](Nc1nc(Cl)nc2c1CN(C(=O)C1CC(=O)N(c3ccc4c(c3)OCO4)C1)C2)c1cc(N)cc(C(F)(F)F)c1 (stereo partly shown) [Example 106],< 400 nM,–,–
C[C@@H](Nc1nc(Cl)nc2c1CN(C(=O)N1CCc3cccnc31)C2)c1cccc(C(F)(F)F)c1 [Example 369],< 400 nM,< 1000 nM,–
C[C@@H](Nc1nc(Cl)nc2c1CN(C(=O)CN1CCOCC1)C2)c1cc(N)cc(C(F)(F)F)c1 [Example 89],< 400 nM,< 1000 nM,–
C[C@@H](Nc1nc(Cl)nc2c1CN(C(=O)c1nccnn1)C2)c1cc(N)cc(C(F)(F)F)c1 [Example 64],> 400 nM,> 1000 nM,–
C[C@@H](Nc1nc(Cl)nc2c1CN(C(=O)N1CCC(C)(O)CC1)C2)c1cc(N)cc(C(F)(F)F)c1 [Example 162],< 400 nM,< 1000 nM,–
C[C@@H](Nc1nc(Cl)nc2c1CN(C(=O)N1CCC(C)(N)CC1)C2)c1cc(N)cc(C(F)(F)F)c1 [Example 157],< 400 nM,–,–
"C[C@@H](Nc1nccc2nc(C(=O)N3CCNCC3)cn12)c1cccc(C(F)F)c1F [Example 530, [5-[[(1R)-1-[3-(difluoromethyl)-2-fluoro-phenyl]ethyl]amino]imidazo[1,2-c]pyrimidin-2-yl]-piperazin-1-yl-methanone hydrochloride]",< 400 nM,–,–
C[C@@H](Nc1nc(Cl)nc2c1CN(C(=O)N1CCC(O)CC1)C2)c1cc(N)cc(C(F)(F)F)c1 [Example 155],< 400 nM,–,–
C[C@@H](Nc1nc(Cl)nc2c1CN(C(=O)N1CC[C@H](O)C1)C2)c1cc(N)cc(C(F)(F)F)c1 [Example 161],< 400 nM,–,–
C[C@@H](Nc1nc(Cl)nc2c1CN(C(=O)C1CC3(CNC3)C1)C2)c1cc(N)cc(C(F)(F)F)c1 [Example 98],< 400 nM,–,–
C[C@@H](Nc1nc(Cl)nc2c1CN(C(=O)N1CC3(CCCO3)C1)C2)c1cc(N)cc(C(F)(F)F)c1 [Example 156],< 400 nM,–,–
C[C@@H](Nc1nc(Cl)nc2c1CN(C(=O)C1(N)CCCOC1)C2)c1cc(N)cc(C(F)(F)F)c1 (stereo partly shown) [Example 88],< 400 nM,–,–
C[C@@H](Nc1nc(Cl)nc2c1CN(C(=O)c1cc3c(s1)CCOC3)C2)c1cc(N)cc(C(F)(F)F)c1 [Example 105],> 400 nM,–,–
C[C@@H]1COC[C@H](C)N1C(=O)N1Cc2nc(Cl)nc(N[C@H](C)c3cc(N)cc(C(F)(F)F)c3)c2C1 [Example 164],< 400 nM,–,–
"COC(F)(F)c1cccc([C@@H](C)Nc2nc(Cl)nc3c2CN(C(=O)N2CCOCC2)C3)c1 [Example 475, 2-chloro-N-[(1R)-1-{3-[difluoro(methoxy)methyl]phenyl}ethyl]-6-(morpholine-4-carbonyl)-5H,6H,7H-pyrrolo[3,4-d]pyrimidin-4-amine]",–,> 1000 nM,> 1000 nM
C[C@@H](Nc1nc(Cl)nc2c1CN(C(=O)C13OCCCC1C3(F)F)CC2)c1cc(N)cc(C(F)(F)F)c1 (stereo partly shown) [Example 214],–,> 1000 nM,> 1000 nM
C[C@@H](Nc1nc(O)nc2c1CN(C(=O)N1CCOCC1)C2)c1cc(N)cc(C(F)(F)F)c1 [Example 55],–,< 1000 nM,> 1000 nM
"CNCc1nc2c(c(N[C@H](C)c3cc(N)cc(C(F)(F)F)c3)n1)CN(C(=O)N1CCOCC1)C2 [Example 503, N-[(1R)-1-[3-amino-5-(trifluoro-methyl)phenyl]ethyl]-2-[(methylamino)methyl]-6-(morpholine-4-carbonyl)-5H,6H,7H-pyrrolo[3,4-d]-pyrimidin-4-amine]",–,< 1000 nM,> 1000 nM
C[C@@H](Nc1nc(Cl)nc2c1CN(C(=O)C1CC13CCOCC3)CC2)c1cc(N)cc(C(F)(F)F)c1 (stereo partly shown) [Example 197],–,> 1000 nM,> 1000 nM

# Reference: patent US20230096028A1, “BICYCLIC HETEROCYCLYL COMPOUNDS AND USES THEREOF” (Revolution Medicines, Inc., priority 2019, published 2023)
